Source: article PMC9562282, “Reaction of Thiosulfate Dehydrogenase with a Substrate Mimic Induces Dissociation of the Cysteine Heme Ligand Giving Insights into the Mechanism of Oxidative Catalysis” (Journal of the American Chemical Society, 2022)

Molecular target: T1, CjTsdA (Campylobacter jejuni thiosulfate dehydrogenase) (Campylobacter jejuni, UniProt A0A5Y8VWW6)
T1 construct: diheme c-type cytochrome (two covalent c hemes), mass 37,202 Da by LCMS with unmodified Cys138; host and tags only in supplement
Assay: LCMS of intact protein (supported by absorbance and MCD spectroscopy)
Format: binding
Settings: covalent; cysteinyl-138 sulfonate adduct; 1.5 mM sulfite, anaerobic 50 mM HEPES, 50 mM NaCl, pH 7, 20 °C; ferricyanide as oxidant

In the case of `O=S(O)O` [sulfite], the “LCMS of intact protein (supported by absorbance and MCD spectroscopy)” value is reported as “sulfite is shown to bind to the active site of CjTsdA”.
